# Counter-ions that a name gives are not always drawn.
# System: apamin-sensitive sites of the SK channels
# Experiment: Competition binding between 125I-apamin and bis-tetrahydroisoquinoline derivatives on rat cortical synaptosomes
# Conditions: for % of 125I-apamin displaced at 10 μM: 10 μM compound, ±10 pM 125I-apamin, rat cortical synaptosomes, 1 h at 0° C.; for Ki: separated stereoisomers, rat cortical apamin sensitive sites, 125I-apamin
# Procedure: These experiments are used to evaluate the potency of the bis-tetrahydroisoquinoline derivatives to interact with the apamin-sensitive sites of the SK channels, the selected target for which a blockade is expected to be useful in the treatment of Alzheimer's disease, Parkinson's disease, schizophrenia, cognitive dysfunction, or depression. Two reference compounds are also tested for comparison
# Rats (male Wistar, ±250 g) were killed by decapitation and the brains were quickly removed and kept on ice during dissection. Crude cortex was dispersed in 0.32 M sucrose by using a Pottero homogenizer. After a first centrifugation at 1500×g for 10 min, the supernatant was centrifuged at 25000×g for 10 min. The resulting pellet was dispersed in 5 mL 0.32 M sucrose to be aliquoted. Protein concentration was determined by the method of Hartree with bovine serum albumin as a standard.^36
# The buffer consisted of a 10 mM Tris-HCl (pH 7.5) solution containing 5.4 mM KCl and 0.1% bovine serum albumin. The radioligand was ^125I-apamin (Perkin-Elmer, Specific activity 81.4 TBq mmol^−1). Glass fibre filters (Whatman GF/C) used in these experiments were coated for 1 h in 0.5% polyethylenimine and then washed with 2.5 mL of the ice-cold buffer just before use. Binding experiments were always terminated as follows. Aliquots were filtered under reduced pressure through Whatman filters. Filters were rapidly washed twice with 2.5 mL of buffer. The radioactivity remaining on the filter was evaluated with a Packard Tri-Carb 1600TR liquid scintillation analyser with an efficacy of 69%. ^125I-apamin binding to the filters was also estimated in the absence of synaptosomes. This binding was also substracted from the total binding. Curve fitting was carried out using GraphPad Prism.
# Saturation Binding Experiments—Synaptosomes (0.2 mg of protein/mL) were incubated with increasing concentrations of ^125I-apamin (25 μL) with 975 μL of incubation buffer for 1 h at 0° C. Samples were then filtered on Whatman GF/C filter and the radioactivity was measured as described above. Non specific binding was determined in parallel experiments in the presence of an excess of unlabeled apamin (0.1 μM) and subtracted from the total binding to obtain the specific binding.
# Competition Experiments between ^125I-apamin and Bis-tetrahydroisoquinoline derivatives—Synaptosomes (0.2 mg of protein/mL) were incubated for 1 h at 0° C. with ±10 pM of ^125I-apamin (25 μL) and nine concentrations of bis-tetrahydroisoquinoline derivatives (10^−4 to 10^−7 M). Non specific binding was determined in the presence of an excess of unlabeled apamin (0.1 μM). Samples were then filtered on Whatman filter and the radioactivity was measured as described above.
compound,measurement,setting,value
"CN1CCc2ccccc2C1CCCCCC1c2ccccc2CCN1C.Cl (stereo not drawn) [Compound 4c, 1,5-bis[1-(2-methyl-1,2,3,4-tetrahydroisoquinolyl)]-pentane hydrochloride]",% of 125I-apamin displaced at 10 μM,,9%
COc1cc2c(cc1OC)C(Cc1ccc(CC3c4cc(OC)c(OC)cc4CCN3C)cc1)N(C)CC2 (stereo not drawn) [Compound 4n E1],Ki,listed as 4n E1,1010 ± 144 nM
"COc1cc2c(cc1OC)C(CCCCC1c3cc(OC)c(OC)cc3CCN1C)N(C)CC2 (stereo not drawn) [Compound 4e MESO, 1,4-bis[1-(6,7-dimethoxy-2-methyl-1,2,3,4-tetrahydroisoquinolyl)]-butane hydrochloride]",Ki,"listed as 4e MESO, hydrochloride",1070 ± 124 nM
"COc1cc2c(cc1OC)C(CCCCC1c3cc(OC)c(OC)cc3CCN1C)N(C)CC2.Cl (stereo not drawn) [Compound 4e, 1,4-bis[1-(6,7-dimethoxy-2-methyl-1,2,3,4-tetrahydroisoquinolyl)]-butane hydrochloride]",% of 125I-apamin displaced at 10 μM,,72%
"CN1CCc2ccccc2C1CCCCC1c2ccccc2CCN1C.Cl (stereo not drawn) [Compound 4b, 1,4-bis[1-(2-methyl-1,2,3,4-tetrahydroisoquinolyl)]-butane hydrochloride]",% of 125I-apamin displaced at 10 μM,,16%
"COc1cc2c(cc1OC)C(CCCCCC1c3cc(OC)c(OC)cc3CCN1C)N(C)CC2 (stereo not drawn) [Compound 4f MESO, 1,5-bis[1-(6,7-dimethoxy-2-methyl-1,2,3,4-tetrahydroisoquinolyl)]-pentane hydrochloride]",Ki,"listed as 4f MESO, hydrochloride",731 ± 63 nM
"COc1cc2c(cc1OC)C(CCCC1c3cc(OC)c(OC)cc3CCN1C)N(C)CC2 (stereo not drawn) [Compound 4d E2, 1,3-bis[1-(6,7-dimethoxy-2-methyl-1,2,3,4-tetrahydroisoquinolyl)]-propane hydrochloride]",Ki,"listed as 4d E2, hydrochloride",1880 ± 105 nM
"o-bis[1-(2-methyl-1,2,3,4-tetrahydroisoquinolyl)]-xylene hydrochloride [Compound 4j]",% of 125I-apamin displaced at 10 μM,,19%
COc1cc2c(cc1OC)C(Cc1ccc(CC3c4cc(OC)c(OC)cc4CCN3C)cc1)N(C)CC2 (stereo not drawn) [Compound 4n E2],Ki,listed as 4n E2,1120 ± 46 nM

# Source: US20090093517A1, “BIS1,2,3,4-TETRAHYDROISOQUINOLINE DERIVATIVES AND THEIR USES AS PHARMACEUTICALS” (UNIVERSITE DE LIEGE, priority 2006, published 2009)
